pIC50: −log10 of the molar value.
How the values were obtained:
Acetylcholinesterase [1] = molecular target: T1, Acetylcholinesterase (Electrophorus electricus, UniProt O42275)
Description: (§1) Inhibition of electric eel AChE by Ellman's method

Acetylcholinesterase [2] = molecular target: T1, Acetylcholinesterase; remark: listed apart in the source
Description: as §1

Cholinesterase [3] = molecular target: T2, Cholinesterase (Equus caballus, UniProt P81908); experiment: Inhibition of equine serum BuChE by Ellman's method
Cholinesterase [4] = molecular target: T2, Cholinesterase; experiment: Inhibition of equine serum BuChE using butylthiocholine chloride as substrate peincubated for 15 mins followed by substrate addition measured at 1 min interval by Ellman's method
Acetylcholinesterase [5] = molecular target: T1, Acetylcholinesterase; remark: listed apart in the source
Description: Inhibition of electric eel AChE using acetylthiocholine chloride as substrate peincubated for 15 mins followed by substrate addition measured at 1 min interval by Ellman's method

Acetylcholinesterase [6] = molecular target: Acetylcholinesterase (Torpedo californica, UniProt P04058); experiment: Inhibition of Torpedo californica AChE using acetylthiocholine chloride as substrate peincubated for 15 mins followed by substrate addition measured after 5 mins by Ellman's method; design: species or system Tetronarce californica
Acetylcholinesterase (Torpedo californica, UniProt P04058), sequence (P04058 whole entry): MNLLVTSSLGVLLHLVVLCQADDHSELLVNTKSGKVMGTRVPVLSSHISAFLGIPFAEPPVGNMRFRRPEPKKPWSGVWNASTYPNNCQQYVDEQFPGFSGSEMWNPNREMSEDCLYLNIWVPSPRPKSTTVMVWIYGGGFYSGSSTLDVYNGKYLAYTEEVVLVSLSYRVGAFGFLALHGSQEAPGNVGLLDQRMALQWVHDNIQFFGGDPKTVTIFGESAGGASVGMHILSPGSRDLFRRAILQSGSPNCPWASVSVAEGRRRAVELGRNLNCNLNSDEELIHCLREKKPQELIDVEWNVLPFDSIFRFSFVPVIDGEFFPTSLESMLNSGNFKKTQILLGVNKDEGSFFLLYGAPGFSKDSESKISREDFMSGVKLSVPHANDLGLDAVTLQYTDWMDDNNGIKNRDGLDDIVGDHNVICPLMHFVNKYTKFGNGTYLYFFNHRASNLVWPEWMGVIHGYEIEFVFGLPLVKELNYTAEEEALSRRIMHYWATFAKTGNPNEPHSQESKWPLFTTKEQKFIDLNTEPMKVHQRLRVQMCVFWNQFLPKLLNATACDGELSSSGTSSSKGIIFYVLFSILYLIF

[7] = molecular target: Amyloid-beta precursor protein (Homo sapiens) (UniProt P05067); experiment: Inhibition of self-induced amyloid beta (1 to 42) (unknown origin) aggregation at 100 uM after 24 hrs in presence of copper by ThT fluorescence assay relative to control
Amyloid-beta precursor protein (Homo sapiens), sequence (P05067 whole entry): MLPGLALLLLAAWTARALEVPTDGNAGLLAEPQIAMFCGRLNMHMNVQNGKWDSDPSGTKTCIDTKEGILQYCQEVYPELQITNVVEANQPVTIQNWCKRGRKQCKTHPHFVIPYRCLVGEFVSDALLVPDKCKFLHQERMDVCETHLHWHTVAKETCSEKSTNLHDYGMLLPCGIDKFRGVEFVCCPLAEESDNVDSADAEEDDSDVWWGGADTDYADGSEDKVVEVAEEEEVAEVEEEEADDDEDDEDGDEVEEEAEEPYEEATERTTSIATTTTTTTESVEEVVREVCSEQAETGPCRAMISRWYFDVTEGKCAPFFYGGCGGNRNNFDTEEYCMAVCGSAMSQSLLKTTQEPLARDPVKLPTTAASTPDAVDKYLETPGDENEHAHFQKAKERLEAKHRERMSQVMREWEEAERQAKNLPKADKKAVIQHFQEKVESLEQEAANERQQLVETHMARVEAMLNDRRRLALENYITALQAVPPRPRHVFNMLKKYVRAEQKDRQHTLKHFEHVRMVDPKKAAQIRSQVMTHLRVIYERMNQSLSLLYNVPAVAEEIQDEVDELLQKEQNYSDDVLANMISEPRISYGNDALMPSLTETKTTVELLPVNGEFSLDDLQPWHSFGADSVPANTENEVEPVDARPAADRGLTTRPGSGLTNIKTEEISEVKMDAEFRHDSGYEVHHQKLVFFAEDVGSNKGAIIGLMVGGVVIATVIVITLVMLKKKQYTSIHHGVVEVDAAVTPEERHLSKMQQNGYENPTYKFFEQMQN

[8] = molecular target: Amyloid-beta precursor protein (Homo sapiens) (UniProt P05067); experiment: Inhibition of self-induced amyloid beta (1 to 42) (unknown origin) aggregation at 100 uM after 24 hrs by ThT fluorescence assay relative to control
Acetylcholinesterase [9] = molecular target: T3, Acetylcholinesterase (Homo sapiens, UniProt P22303); conditions: 0.6 mg/kg
T3 sequence (P22303 whole entry): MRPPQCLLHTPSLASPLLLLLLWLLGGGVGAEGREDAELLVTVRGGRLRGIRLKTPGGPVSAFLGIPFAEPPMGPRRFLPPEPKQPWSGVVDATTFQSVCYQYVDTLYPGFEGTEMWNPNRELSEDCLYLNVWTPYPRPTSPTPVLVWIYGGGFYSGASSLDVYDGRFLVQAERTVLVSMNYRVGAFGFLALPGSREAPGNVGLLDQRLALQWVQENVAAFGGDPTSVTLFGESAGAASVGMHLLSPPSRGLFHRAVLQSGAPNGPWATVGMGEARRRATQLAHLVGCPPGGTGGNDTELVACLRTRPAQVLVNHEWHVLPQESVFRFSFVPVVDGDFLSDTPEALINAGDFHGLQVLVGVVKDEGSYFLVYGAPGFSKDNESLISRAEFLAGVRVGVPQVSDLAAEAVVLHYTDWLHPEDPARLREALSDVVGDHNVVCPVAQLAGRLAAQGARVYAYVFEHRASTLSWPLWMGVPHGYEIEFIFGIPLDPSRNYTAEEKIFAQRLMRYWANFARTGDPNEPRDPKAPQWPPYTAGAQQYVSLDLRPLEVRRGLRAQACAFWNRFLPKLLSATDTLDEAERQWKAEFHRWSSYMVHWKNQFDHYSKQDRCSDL

[10] = molecular target: Cholinesterase (Homo sapiens) (UniProt P06276); conditions: 0.6 mg/kg
Cholinesterase (Homo sapiens), sequence (P06276 whole entry): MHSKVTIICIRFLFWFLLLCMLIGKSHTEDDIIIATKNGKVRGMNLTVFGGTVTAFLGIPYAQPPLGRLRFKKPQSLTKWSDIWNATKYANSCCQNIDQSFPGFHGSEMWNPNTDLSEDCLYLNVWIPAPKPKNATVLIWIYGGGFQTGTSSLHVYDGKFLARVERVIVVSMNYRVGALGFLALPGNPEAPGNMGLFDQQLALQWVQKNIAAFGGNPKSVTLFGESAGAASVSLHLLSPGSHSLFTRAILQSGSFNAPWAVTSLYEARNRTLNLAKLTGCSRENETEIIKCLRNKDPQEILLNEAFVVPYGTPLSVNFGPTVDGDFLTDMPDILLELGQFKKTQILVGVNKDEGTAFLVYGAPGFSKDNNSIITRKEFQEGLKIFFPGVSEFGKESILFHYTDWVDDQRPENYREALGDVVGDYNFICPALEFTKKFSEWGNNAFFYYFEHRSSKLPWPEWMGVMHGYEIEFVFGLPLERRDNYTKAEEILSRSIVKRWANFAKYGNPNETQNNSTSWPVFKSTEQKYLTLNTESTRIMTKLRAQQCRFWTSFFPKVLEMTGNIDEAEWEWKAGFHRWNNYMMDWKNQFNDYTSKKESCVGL

Acetylcholinesterase [11] = molecular target: T3, Acetylcholinesterase; experiment: Inhibition of human AChE using acetylthiocholine chloride as substrate peincubated for 15 mins followed by substrate addition measured at 1 min interval by Ellman's method
[12] = molecular target: T4, Amine oxidase [flavin-containing] B (Homo sapiens, UniProt P27338); experiment: Inhibition of human MAO B
T4 sequence (P27338 whole entry): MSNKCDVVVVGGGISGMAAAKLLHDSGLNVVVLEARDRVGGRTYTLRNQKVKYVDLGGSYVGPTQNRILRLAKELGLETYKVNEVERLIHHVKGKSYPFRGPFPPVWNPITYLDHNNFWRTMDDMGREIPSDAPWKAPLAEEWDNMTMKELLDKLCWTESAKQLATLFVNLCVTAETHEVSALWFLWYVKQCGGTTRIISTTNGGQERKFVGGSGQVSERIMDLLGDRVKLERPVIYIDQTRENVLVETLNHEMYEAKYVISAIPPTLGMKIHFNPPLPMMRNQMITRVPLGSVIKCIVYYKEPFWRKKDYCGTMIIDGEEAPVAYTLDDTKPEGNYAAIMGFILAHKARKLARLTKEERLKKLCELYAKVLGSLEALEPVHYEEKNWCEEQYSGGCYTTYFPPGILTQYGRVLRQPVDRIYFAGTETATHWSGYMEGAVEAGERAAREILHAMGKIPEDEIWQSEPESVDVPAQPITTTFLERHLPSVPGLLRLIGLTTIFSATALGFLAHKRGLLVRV

[13] = molecular target: T5, Amine oxidase [flavin-containing] A (Homo sapiens, UniProt P21397); experiment: Inhibition of human MAO A
T5 sequence (P21397 whole entry): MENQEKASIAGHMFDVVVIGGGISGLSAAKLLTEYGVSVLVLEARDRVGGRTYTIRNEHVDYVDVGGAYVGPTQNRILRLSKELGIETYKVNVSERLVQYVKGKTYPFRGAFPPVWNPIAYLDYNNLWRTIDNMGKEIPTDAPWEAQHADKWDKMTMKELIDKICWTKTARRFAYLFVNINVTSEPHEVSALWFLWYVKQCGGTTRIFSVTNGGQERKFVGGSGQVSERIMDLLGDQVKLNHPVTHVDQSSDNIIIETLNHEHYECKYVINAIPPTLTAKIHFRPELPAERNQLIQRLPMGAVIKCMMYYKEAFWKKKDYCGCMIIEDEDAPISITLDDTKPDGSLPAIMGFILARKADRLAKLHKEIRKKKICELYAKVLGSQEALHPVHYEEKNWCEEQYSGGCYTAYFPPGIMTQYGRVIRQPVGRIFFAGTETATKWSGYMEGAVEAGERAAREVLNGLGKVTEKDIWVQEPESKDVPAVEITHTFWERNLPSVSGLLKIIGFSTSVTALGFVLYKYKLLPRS

[14] = molecular target: T6, Amine oxidase [flavin-containing] B (Rattus norvegicus, UniProt P19643); experiment: In-vivo inhibition of MAO B in rat brain at 26 mg/kg, po relative to control; type: functional, organism-based
T6 sequence (P19643 whole entry): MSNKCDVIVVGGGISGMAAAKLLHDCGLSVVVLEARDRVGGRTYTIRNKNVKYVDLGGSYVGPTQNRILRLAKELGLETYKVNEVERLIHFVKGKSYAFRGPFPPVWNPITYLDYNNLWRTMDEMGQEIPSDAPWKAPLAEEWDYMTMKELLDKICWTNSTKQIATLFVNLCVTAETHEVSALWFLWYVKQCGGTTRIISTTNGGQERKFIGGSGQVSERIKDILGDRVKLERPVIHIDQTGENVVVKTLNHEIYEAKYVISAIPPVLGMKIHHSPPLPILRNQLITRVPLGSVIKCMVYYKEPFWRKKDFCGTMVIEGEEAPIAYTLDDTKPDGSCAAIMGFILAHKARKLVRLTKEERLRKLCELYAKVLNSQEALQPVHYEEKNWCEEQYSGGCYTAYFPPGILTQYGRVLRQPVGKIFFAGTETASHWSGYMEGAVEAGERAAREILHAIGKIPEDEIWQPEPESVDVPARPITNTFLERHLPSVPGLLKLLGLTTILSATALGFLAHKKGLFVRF

[15] = molecular target: T7, Amine oxidase [flavin-containing] A (Rattus norvegicus, UniProt P21396); experiment: In-vivo inhibition of MAO A in rat brain at 26 mg/kg, po relative to control; type: functional, organism-based
T7 sequence (P21396 whole entry): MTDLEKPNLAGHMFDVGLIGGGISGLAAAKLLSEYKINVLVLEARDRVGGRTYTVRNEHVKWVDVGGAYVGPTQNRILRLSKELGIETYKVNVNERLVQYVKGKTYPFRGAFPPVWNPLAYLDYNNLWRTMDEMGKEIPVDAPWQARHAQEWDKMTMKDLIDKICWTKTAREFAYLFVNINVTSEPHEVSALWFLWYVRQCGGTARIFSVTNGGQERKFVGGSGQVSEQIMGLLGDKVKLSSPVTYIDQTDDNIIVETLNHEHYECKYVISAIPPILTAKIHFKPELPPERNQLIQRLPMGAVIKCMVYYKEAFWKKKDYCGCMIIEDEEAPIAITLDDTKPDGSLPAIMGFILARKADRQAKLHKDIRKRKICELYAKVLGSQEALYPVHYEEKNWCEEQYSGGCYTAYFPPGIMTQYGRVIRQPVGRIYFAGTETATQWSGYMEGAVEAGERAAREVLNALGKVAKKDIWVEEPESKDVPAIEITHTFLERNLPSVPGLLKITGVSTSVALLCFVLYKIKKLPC

T2 sequence (P81908 whole entry): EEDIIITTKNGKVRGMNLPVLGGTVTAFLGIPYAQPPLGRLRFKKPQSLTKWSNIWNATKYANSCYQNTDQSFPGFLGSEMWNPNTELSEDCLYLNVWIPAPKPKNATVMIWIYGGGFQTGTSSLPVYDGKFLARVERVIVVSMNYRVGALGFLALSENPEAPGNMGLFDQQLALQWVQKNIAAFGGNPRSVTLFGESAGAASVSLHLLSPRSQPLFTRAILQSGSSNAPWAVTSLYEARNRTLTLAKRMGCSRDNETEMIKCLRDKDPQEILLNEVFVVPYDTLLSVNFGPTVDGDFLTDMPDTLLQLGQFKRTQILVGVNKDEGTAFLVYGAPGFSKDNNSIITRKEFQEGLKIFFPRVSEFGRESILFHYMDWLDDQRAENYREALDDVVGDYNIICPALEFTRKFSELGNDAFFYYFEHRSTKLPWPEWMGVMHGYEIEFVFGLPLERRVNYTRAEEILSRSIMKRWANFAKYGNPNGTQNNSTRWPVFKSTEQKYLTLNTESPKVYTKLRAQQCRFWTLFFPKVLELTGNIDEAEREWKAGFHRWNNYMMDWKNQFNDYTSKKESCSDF
T1 sequence (O42275 whole entry): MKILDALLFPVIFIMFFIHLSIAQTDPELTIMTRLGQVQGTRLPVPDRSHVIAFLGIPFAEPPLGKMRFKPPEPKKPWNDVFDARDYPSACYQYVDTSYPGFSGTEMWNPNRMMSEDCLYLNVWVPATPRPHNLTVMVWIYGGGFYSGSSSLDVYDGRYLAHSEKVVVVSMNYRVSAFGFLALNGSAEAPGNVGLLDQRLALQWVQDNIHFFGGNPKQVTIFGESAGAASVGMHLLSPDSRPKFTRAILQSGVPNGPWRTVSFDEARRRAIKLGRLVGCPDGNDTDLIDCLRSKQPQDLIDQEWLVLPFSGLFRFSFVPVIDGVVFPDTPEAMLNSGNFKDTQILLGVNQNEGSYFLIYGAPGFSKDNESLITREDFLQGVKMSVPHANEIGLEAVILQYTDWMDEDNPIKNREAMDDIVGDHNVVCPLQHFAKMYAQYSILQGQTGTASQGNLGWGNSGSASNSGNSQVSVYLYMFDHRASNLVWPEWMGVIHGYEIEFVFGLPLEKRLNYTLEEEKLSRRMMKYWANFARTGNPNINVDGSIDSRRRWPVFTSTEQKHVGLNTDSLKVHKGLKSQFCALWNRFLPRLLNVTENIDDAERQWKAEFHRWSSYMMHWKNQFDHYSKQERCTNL

## C#CCN(C)Cc1cc2cc(OC)c(O)cc2oc1=O
Acetylcholinesterase [1]
  pIC50: 4.84 to 5.56

## C#CCN(C)c1nc(NCCCCC2CCN(Cc3ccccc3)CC2)c(C#N)cc1C#N
Acetylcholinesterase [2]
  pIC50: 8.96
Cholinesterase [3]
  pIC50: 6.22

## C#CCN(CC#C)CCNc1c2c(nc3ccccc13)CCCC2
Cholinesterase [4]
  pIC50: 6.45
Acetylcholinesterase [5]
  pIC50: 6.47

## C=CCSCC(NC(=O)CCCNc1c2c(nc3ccccc13)CCCC2)C(=O)Nc1nc2ccccc2s1 (stereo unspecified)
Acetylcholinesterase [6]
  pIC50: 6.55 to 6.60

## C#CCSC[C@@H](N)C(=O)NCCCCNc1c2c(nc3ccccc13)CCCC2
Acetylcholinesterase [6]
  pIC50: 5.92

## C#CCSCC(NC(=O)CCCCCNc1c2c(nc3cc(Cl)ccc13)CCCC2)C(=O)Nc1nc2ccccc2s1 (stereo unspecified)
Acetylcholinesterase [6]
  pIC50: 6.55 to 6.60

## C#CCSC[C@@H](N)C(=O)NCCCNc1c2c(nc3cc(Cl)ccc13)CCCC2
Acetylcholinesterase [6]
  pIC50: 6.25

## C#CCSCC(NC(=O)CCCNc1c2c(nc3cc(Cl)ccc13)CCCC2)C(=O)Nc1nc2ccccc2s1 (stereo unspecified)
[7]
  inhibition: 37.6%
[8]
  inhibition: 24.1%
Acetylcholinesterase [6]
  pIC50: 6.60

## C=CCSCC(NC(=O)CCCCCNc1c2c(nc3cc(Cl)ccc13)CCCC2)C(=O)Nc1nc2ccccc2s1 (stereo unspecified)
Acetylcholinesterase [6]
  pIC50: 6.55

## C#CCNCCNc1c2c(nc3ccccc13)CCCC2
Acetylcholinesterase [5]
  pIC50: 6.65

## C#CCN(CC#C)c1c2c(nc3cc(Cl)ccc13)CCCC2
Cholinesterase [4]
  pIC50: 5.27
Acetylcholinesterase [5]
  pIC50: 6.05

## Nc1c2c(nc3cc(Cl)ccc13)CCCC2
Acetylcholinesterase [5]
  pIC50: 7.63

## C=CCSCC(NC(=O)CCCCCNc1c2c(nc3ccccc13)CCCC2)C(=O)Nc1nc2ccccc2s1 (stereo unspecified)
[8]
  inhibition: 78.2%
Acetylcholinesterase [6]
  pIC50: 6.55 to 6.60

## C#CCN(C)Cc1cc2ccccc2oc1=O
Acetylcholinesterase [1]
  pIC50: 4.84 to 5.56

## C=CCSC[C@@H](N)C(=O)NCCCNc1c2c(nc3cc(Cl)ccc13)CCCC2
Acetylcholinesterase [6]
  pIC50: 6.52

## CCN(C)C(=O)Oc1cccc([C@H](C)N(C)C)c1
Acetylcholinesterase [9]
  inhibition: 40%
[10]
  inhibition: 25%

## C#CCNc1c2c(nc3cc(Cl)ccc13)CCCC2
Cholinesterase [4]
  pIC50: 7.08
Acetylcholinesterase [5]
  pIC50: 7.95
Acetylcholinesterase [11]
  pIC50: 8.03

## C#CCNc1c2c(nc3ccccc13)CCCC2
Cholinesterase [4]
  pIC50: 7.11
Acetylcholinesterase [5]
  pIC50: 6.98 to 7.29
Acetylcholinesterase [11]
  pIC50: 7.29

## C#CCSCC(NC(=O)CCCCCNc1c2c(nc3ccccc13)CCCC2)C(=O)Nc1nc2ccccc2s1 (stereo unspecified)
Acetylcholinesterase [6]
  pIC50: 6.55 to 6.60

## C#CCN(C)Cc1cc2cc(OCCCC3CCN(Cc4ccccc4)CC3)ccc2n1C
[12]
  pIC50: 6.75
[13]
  pIC50: 8.26

## C#CCSCC(NC(=O)CCCNc1c2c(nc3ccccc13)CCCC2)C(=O)Nc1nc2ccccc2s1 (stereo unspecified)
[8]
  inhibition: 77.2%
Acetylcholinesterase [6]
  pIC50: 6.55 to 6.60

## C#CCN(C)Cc1cc2ccc(OC)cc2oc1=O
Acetylcholinesterase [1]
  pIC50: 4.84 to 5.56

## C=CCSCC(NC(=O)CCCNc1c2c(nc3cc(Cl)ccc13)CCCC2)C(=O)Nc1nc2ccccc2s1 (stereo unspecified)
[7]
  inhibition: 56.6%
[8]
  inhibition: 31.6%
Acetylcholinesterase [6]
  pIC50: 6.55 to 6.60

## C=CCSC[C@@H](N)C(=O)NCCCNc1c2c(nc3ccccc13)CCCC2
Acetylcholinesterase [6]
  pIC50: 6.06

## C#CCN[C@@H]1CCc2ccc(OC(=O)N(C)CC)cc21 [LADOSTIGIL]
[14]
  inhibition at 26 mg/kg: 70%
[15]
  inhibition at 26 mg/kg: 70%

Reference: ChEMBL document CHEMBL4616591, “Propargylamine-derived multi-target directed ligands for Alzheimer's disease therapy” (Bioorg Med Chem Lett, 2020)
